In patent USRE39088E1, “Amide compounds and use of the same” (Japan Tobacco, Inc., priority 1995, dated 2006):
Structures can show the parent of a compound that is named as a salt.

Legend:
IL-8 = assay: Suppression of production of inflammatory cytokines: IL-8 in LPS-stimulated human peripheral blood monocytes (ELISA); format: cell-based; conditions: supernatant 20 hours after LPS
Protocol: Suppression of production of inflammatory cytokines
Thirty ml of human peripheral blood added with heparin was placed on Ficol-Paque (15 ml), and centrifuged at 400 G for 40 minutes at room temperature. The obtained monocyte fraction layers were collected and washed three times with E-MEM medium. The cells were adjusted to a final concentration of 0.5×10^5 cells/800 μl with RPMI-1640 medium containing 5% bovine fetal serum (2-mercaptoethanol), and seeded in a 24 well plant by 800 μl. A test sample (100 μl) was added and 100 μl of lipopolysarcharide (LPS, 100 μg/ml) was added one hour later. The supernatant was taken at 20 hours after stimulation with LPS, and amounts of various cytokines were determined using an ELISA kit.

ALT in blood = assay: Suppression of LPS/D-galactosamine-induced hepatitis; format: in vivo; conditions: Mus musculus, iv; dose 10 mg/kg, tail vein, 10 minutes before LPS/D-galactosamine; ALT in blood at 6 hours, male C57BL/6 mice
Protocol: Suppression of LPS/D-galactosamine-induced hepatitis
LPS (5 μg/kg)D-galactosamine (500 mg/kg) in physiological saline was intraperitoneally injected to male C57BL/6 mice to induce hepatitis. Six hours after the injection of LPS/D-galactosamine in physiological saline, blood was taken from the mice orbital venosus plexus. Plasma was separated from the blood, and ALT in blood was determined by a biochemical analyzer. The test sample was administered from the tail vein at 10 minutes before the injection of LPS/D-galactosamine in physiological saline, and the degree of suppression was investigated. The suppression by the test sample is shown in the ratio relative to the suppression in the control group.
Suppression (%)=100-(ALT amount of group treated with test sample/ALT amount of control group)×100

SMILES	IC50 (IL-8; Homo sapiens, Monocyte, 20 h)	also measured
CCOC(=O)C(Cc1ccccc1)NC(=O)c1cc(Cl)c(OCCC2CCNCC2)c(Cl)c1O (centres unmarked) [Example 69]	< 0.001 µM	
CCOC(=O)C(Cc1ccccc1)NC(=O)c1cc(Br)c(OCCCCN)cc1O (centres unmarked) [Example 74]	0.07 µM	
CCOC(=O)C(Cc1ccccc1)NC(=O)c1cc(Cl)c(CCCCCN(C)C)cc1O (centres unmarked) [Example 94]	1 µM	
CCOC(=O)C(Cc1ccccc1)NC(=O)c1cc(Cl)c(OCCN2CCN(C)CC2)c(Cl)c1OC(C)=O (centres unmarked) [Example 125]	0.01 µM	
CNCCCCOc1c(Cl)cc(C(=O)N[C@@H](Cc2ccccc2)C(=O)OCC(C)C)c(O)c1Cl [Example 29]	< 0.01 µM	
CNCCCCc1ccc(C(=O)N[C@@H](Cc2ccccc2)C(=O)OC)c(O)c1 [Example 90]		IC50 (IL-8; listed as Example No. 90): 0.6 µM
CCOC(=O)C(Cc1ccccc1)NC(=O)c1cc(Cl)c(OCCCCN(C)C)cc1O (centres unmarked) [Example 72]	0.1 µM	
CC1CN(CCOc2c(Cl)cc(C(=O)N[C@@H](Cc3ccccc3)C(=O)O)c(O)c2Cl)CCN1 (some centres unmarked) [Example 129]	2 µM	
CNCCCCOc1c(Cl)cc(C(=O)N[C@@H](CC2CCCCC2)C(=O)OC)c(O)c1Cl [Example 34]	2 µM	
COC(=O)[C@H](Cc1ccccc1)NC(=O)c1cc(Cl)c(OCCN2CCN[C@@H](C)C2)c(Cl)c1O [Example 61]		inhibition in vivo at 10 mg/kg (ALT in blood): 6%
CCOC(=O)C(Cc1ccccc1)NC(=O)c1cc(Cl)c(OCCCN2CCN(C)CC2)c(Cl)c1O (centres unmarked) [Example 68]	0.001 µM	
COC(=O)[C@H](Cc1ccccc1)NC(=O)c1cc(Cl)c(OCCN2CCNC(C)C2)c(Cl)c1OC(C)=O (some centres unmarked) [Example 122]	< 0.01 µM	
CNCCCCNc1c(Cl)cc(C(=O)N[C@@H](Cc2ccccc2)C(=O)OC)c(O)c1Cl [Example 136, N-[3,5-Dichloro-2-hydroxy-4-(4-methylaminobutylamino)benzoyl]-L-phenylalanine methyl ester dihydrochloride]	0.2 µM	
CCOC(=O)[C@H](Cc1ccccc1)NC(=O)c1ccc2oc(SCCCNC)nc2c1 [Example 152, (2S)-2-[2-(3-Methylaminopropylsulfanyl)benzoxazole-5-carbonyl-amino]-3-phenylpropionic acid ethyl ester hydrochloride]	7 µM	
CNCCCCOc1cc(O)c(C(=O)N[C@@H](Cc2ccccc2)C(=O)OC)cc1C [Example 76]	0.3 µM	
CNCCOc1c(Cl)cc(C(=O)N[C@@H](Cc2ccccc2)C(=O)OC)c(O)c1Cl [Example 11]	0.4 µM	
CNCCCCc1ccc(C(=O)N[C@@H](Cc2ccccc2)C(=O)OC)c(O)c1 [Example 88, N-[2-Hydroxy-4-(4-methylaminobutyl)benzoyl]-L-phenylalanine methyl ester hydrochloride]		IC50 (IL-8; listed as Example No. 88, hydrochloride): 3 µM
CN(C)CCCCOc1c(Cl)cc(C(=O)N[C@@H](Cc2ccccc2)C(=O)OCc2ccccc2)c(O)c1Cl [Example 55]	< 0.01 µM	
CCOC(=O)C(Cc1ccccc1)N(C)C(=O)c1cc(Cl)c(OCCCCN)c(Cl)c1O (centres unmarked) [Example 20]	29 µM	
CNCCCCOc1c(Cl)cc(C(=O)N[C@@H](Cc2ccccc2)C(=O)OC)c(OC(=O)COC(C)=O)c1Cl [Example 110]	< 0.01 µM	

Further lines, with some results ahead:

IC50 (IL-8; Homo sapiens, Monocyte, 20 h)	SMILES	also measured
0.05 µM	CCOC(=O)C(Cc1ccccc1)NC(=O)c1cc(Cl)c(OCCCN2CCNCC2)c(Cl)c1O (centres unmarked) [Example 67]	
4 µM	NCCCCOc1c(Cl)cc(C(=O)N[C@@H](Cc2ccccc2)C(N)=O)c(O)c1Cl [Example 139]	
< 0.01 µM	CCOC(=O)C(Cc1ccccc1)NC(=O)c1cc(Cl)c(OCCCCNC)c(Cl)c1O (centres unmarked) [Example 21]	
0.03 µM	CCOC(=O)COC(=O)[C@H](Cc1ccccc1)NC(=O)c1cc(Cl)c(OCCCCN)c(Cl)c1O [Example 43]	
0.009 µM	CCOC(=O)C(Cc1ccccc1)NC(=O)c1cc(Cl)c(OCCCCCCCN)c(Cl)c1O (centres unmarked) [Example 26]	
3 µM	CC1CCCC(C)C1OC(=O)[C@H](Cc1ccccc1)NC(=O)c1cc(Cl)c(OCCCCN)c(Cl)c1O (some centres unmarked) [Example 47]	
0.05 µM	NCCCCOc1c(Cl)cc(C(=O)N[C@@H](Cc2ccccc2)C(=O)ON=C2CCCCC2)c(O)c1Cl [Example 57]	
0.4 µM	NCCCCOc1c(Cl)cc(C(=O)N[C@@H](Cc2ccccc2)C(=O)Nc2ccccn2)c(O)c1Cl [Example 142]	
0.02 µM	NCCCCOc1c(Cl)cc(C(=O)N[C@@H](Cc2ccccc2)C(=O)OC2C3CC4CC(C3)CC2C4)c(O)c1Cl (some centres unmarked) [Example 49]	
